Experiments:
BCL6 = BCL6 (Homo sapiens, UniProt P41182); conditions: well-characterized Boehringer Ingelheim inhibitor; read-out: in vitro IC50; cited from earlier work
GSK3beta = GSK3beta (Homo sapiens, UniProt P49841); test: UV-B induced denaturation of cell lysates, immunoblot of soluble fraction, GSK3beta; assay type: binding; conditions: lysates exposed to UV-B for 4 min; FIG. 29B
GSK3beta, sequence (P49841 whole entry, species assumed): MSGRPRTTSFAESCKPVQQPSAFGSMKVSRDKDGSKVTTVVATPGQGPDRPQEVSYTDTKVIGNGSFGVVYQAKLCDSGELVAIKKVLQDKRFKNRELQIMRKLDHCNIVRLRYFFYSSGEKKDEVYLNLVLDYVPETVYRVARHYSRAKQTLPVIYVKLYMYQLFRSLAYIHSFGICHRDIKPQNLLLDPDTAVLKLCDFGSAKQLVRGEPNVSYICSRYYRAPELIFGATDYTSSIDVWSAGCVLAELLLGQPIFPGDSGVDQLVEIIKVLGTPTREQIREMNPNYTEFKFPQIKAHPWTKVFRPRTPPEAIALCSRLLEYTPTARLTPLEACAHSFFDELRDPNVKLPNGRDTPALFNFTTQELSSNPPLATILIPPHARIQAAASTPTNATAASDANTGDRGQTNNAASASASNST

| SMILES | IC50 (BCL6) | stabilization of GSK3beta protein from UV-B induced denaturation (GSK3beta) |
| --- | --- | --- |
| CNC(=O)COc1cc2cc(Nc3nc(N4CCC(C(=O)N(C)C)CC4)ncc3Cl)cc(OC)c2n(C)c1=O [BI-3812] | ~3 nM | – |
| Cc1c[nH]c(-c2cnc(NCCNc3ccc(C#N)cn3)nc2-c2ccc(Cl)cc2Cl)n1 [CHIR99021] | – | stabilization of the GSK3beta protein |
